# Reference: patent US20240041827A1, “COMPOSITIONS FOR THE TREATMENT OF FAT RELATED CONDITIONS AND DISORDERS” (priority 2020, published 2024)
# System: human visceral preadipocytes
# Experiment: in vitro
# Procedure: Human visceral preadipocytes were seeded in 96-well white clear bottom plates at 10,000 cells per well in 100 μl pre-adipocyte medium and incubated overnight at 37° C. 5% CO2. On the following day, adipogenic differentiation was induced by addition of 100 μl/well differentiation medium and incubation continued for 5 days. Adipogenic differentiation was verified by microscopic evaluation, addition of adipored reagents and fluorescent measurement at Ex485 nm/Em572 nm. […] Staurosporine (1 μM) and 0.2% DMSO were used as controls. Plates were incubated at 37° C. 5% CO2 for 2, 6 and 24 hours. Following incubation, cytotoxicity was measured using Cell Titer Glo 2.0 (Promega).
# Test Item RZL-12 (1-300 μM) was prepared on the day of the testing as 150 mM stock solutions in DMSO. The 150 mM represents a 500×stock of the highest desired tested concentration. The 150 mM stock solution was first serially diluted in DMSO to acquire 500×stock solutions for each of the RZL-012 concentrations. The 500×stock solutions were then diluted 1:25 in medium to acquire 20×intermediate stock solutions. Finally, the 20×intermediate stock solutions were further diluted 1:20 in the assay (on the plate) that included seeded cells.
# The 600 μM represents a 20× stock of the highest desired tested concentration. […] Finally, the 20×intermediate stock solutions were further diluted 1:20 in the assay plate that included seeded cells.
# Human visceral pre-adipocytes (HPrAD-vis): HPrAD-vis cells (Lonza cat #PT-5005) were thawed at 37° C. and transferred into 50 ml tubes containing pre-adipocytes PGM-2 growth medium (PBM-2, 10% FBS, 1-glutamine, GA-1000). Cells were centrifuged at 300 g for 10 minutes, the supernatant was removed (Leaving about 1 ml of wash medium for not disrupting the cells) and 2 ml fresh PGM-2 medium was added. After resuspension, cells were counted and seeded in T-75 and T25 flasks at a density of 9,000 cells/cm^2 ([…], 225,000 cells/T25 flask). Medium was changed every 2-3 days until reached confluence of 70%.
# Cells were sub-cultured only once, as soon as they reached 70% confluence. For this purpose, the culture medium of each flask was removed and cells were washed once with 5 ml PBS. The flask was shaken to ensure that the entire surface was covered and the PBS was removed. Then, 3 ml/T75 flask or 1 ml/T25 flask of fresh dedicated Trypsin/EDTA solution (from Lonza) was added and the flasks were incubated for 3-4 minutes at RT until ˜90% cells were detached. The Trypsin/EDTA solution was then neutralized by addition of 6 ml/T75 flask or 3 ml/T25 flask of full PGM-2 growth medium. Cells were collected in 50 ml tubes and centrifuged 10 minutes at 300 g. The supernatant was removed and the cells were resuspended in 3 ml fresh medium. Cells were then counted using a haemacytometer slide after being diluted 1:2 in trypan blue (SIGMA). For sub-culturing, cells were seeded in new T75 flasks at a density of 9,000 cells/cm^2 containing 15 ml fresh growth medium. Alternatively, the cells were seeded in 96-well culture plates at a density of 10,000 cells/well for the cell treatments.
# HPrAD-vis cells: HPrAD-vis passaged once were seeded in 96-well plates as described above (10000cells/well in 100 μl medium) and allowed to settle overnight at 37° C., 5% CO2. Following day, adipogenic differentiation was induced by addition of 100 μl/well differentiation medium and incubated for 5 days. Adipogenic differentiation was verified by microscopic evaluation, addition of adipored reagents and fluorescent measurement at Ex485 nm/Em572 nm. In the morning of day 6, test and reference items were prepared as described above. Cells' medium was replaced with 90 μl fresh differentiation medium. […] Staurosporine (1 μM) and 0.2% DMSO were used as controls. Plates were incubated at 37° C. 5% CO2 for 2, 6 and 24 hours. Following incubation, cell viability was determined using the CellTiter-Gg® viability reagent (Promega) with reading of plates for luminescence. […]
smiles,measurement,setting,value
"C[N+](C)(C)CCCCCn1c2ccc(Br)cc2c2cc(Br)ccc21.[Cl-] [RZL-012, 5-(3,6-dibromo-9H-carbazol-9-yl)-N,N,N-trimethylpentan-1-aminium chloride]",Average RZL-012 and collagenase induced cell death (% vs untreated cells),"RZL12 10 μM, Collagenase 0, 2 h of incubation",10.4%
same,Average RZL-012 and collagenase induced cell death (% vs untreated cells),"RZL12 10 μM, Collagenase 0, 24 h of incubation",12.80%
same,Average RZL-012 and collagenase induced cell death (% vs untreated cells),"RZL12 10 μM, Collagenase 0.1 μM, 2 h of incubation",4.9%
same,Average RZL-012 and collagenase induced cell death (% vs untreated cells),"RZL12 10 μM, Collagenase 0.1 μM, 24 h of incubation",9.43%
same,Average RZL-012 and collagenase induced cell death (% vs untreated cells),"RZL12 10 μM, Collagenase 0.3 μM, 2 h of incubation",5.0%
same,Average RZL-012 and collagenase induced cell death (% vs untreated cells),"RZL12 10 μM, Collagenase 0.3 μM, 24 h of incubation",5.50%
same,Average RZL-012 and collagenase induced cell death (% vs untreated cells),"RZL12 10 μM, Collagenase 1 μM, 2 h of incubation",7.8%
same,Average RZL-012 and collagenase induced cell death (% vs untreated cells),"RZL12 10 μM, Collagenase 1 μM, 24 h of incubation",16.08%
same,Average RZL-012 and collagenase induced cell death (% vs untreated cells),"RZL12 10 μM, Collagenase 3 μM, 2 h of incubation",17.7%
same,Average RZL-012 and collagenase induced cell death (% vs untreated cells),"RZL12 10 μM, Collagenase 3 μM, 24 h of incubation",33.99%
same,Average RZL-012 and collagenase induced cell death (% vs untreated cells),"RZL12 10 μM, Collagenase 10 μM, 2 h of incubation",22.3%
same,Average RZL-012 and collagenase induced cell death (% vs untreated cells),"RZL12 10 μM, Collagenase 10 μM, 24 h of incubation",65.12%
same,Average RZL-012 and collagenase induced cell death (% vs untreated cells),"RZL12 10 μM, Collagenase 30 μM, 2 h of incubation",45.0%
same,Average RZL-012 and collagenase induced cell death (% vs untreated cells),"RZL12 10 μM, Collagenase 30 μM, 24 h of incubation",80.04%
same,Average RZL-012 and collagenase induced cell death (% vs untreated cells),"RZL12 30 μM, Collagenase 0, 2 h of incubation",50.4%
same,Average RZL-012 and collagenase induced cell death (% vs untreated cells),"RZL12 30 μM, Collagenase 0, 24 h of incubation",72.72%
same,Average RZL-012 and collagenase induced cell death (% vs untreated cells),"RZL12 30 μM, Collagenase 0.1 μM, 2 h of incubation",43.8%
same,Average RZL-012 and collagenase induced cell death (% vs untreated cells),"RZL12 30 μM, Collagenase 0.1 μM, 24 h of incubation",28.35%
same,Average RZL-012 and collagenase induced cell death (% vs untreated cells),"RZL12 30 μM, Collagenase 0.3 μM, 2 h of incubation",35.0%
same,Average RZL-012 and collagenase induced cell death (% vs untreated cells),"RZL12 30 μM, Collagenase 0.3 μM, 24 h of incubation",23.76%
same,Average RZL-012 and collagenase induced cell death (% vs untreated cells),"RZL12 30 μM, Collagenase 1 μM, 2 h of incubation",45.8%
same,Average RZL-012 and collagenase induced cell death (% vs untreated cells),"RZL12 30 μM, Collagenase 1 μM, 24 h of incubation",31.37%
same,Average RZL-012 and collagenase induced cell death (% vs untreated cells),"RZL12 30 μM, Collagenase 3 μM, 2 h of incubation",49.7%
same,Average RZL-012 and collagenase induced cell death (% vs untreated cells),"RZL12 30 μM, Collagenase 3 μM, 24 h of incubation",79.97%
same,Average RZL-012 and collagenase induced cell death (% vs untreated cells),"RZL12 30 μM, Collagenase 10 μM, 2 h of incubation",33.2%
same,Average RZL-012 and collagenase induced cell death (% vs untreated cells),"RZL12 30 μM, Collagenase 10 μM, 24 h of incubation",83.68%
same,Average RZL-012 and collagenase induced cell death (% vs untreated cells),"RZL12 30 μM, Collagenase 30 μM, 2 h of incubation",46.0%
same,Average RZL-012 and collagenase induced cell death (% vs untreated cells),"RZL12 30 μM, Collagenase 30 μM, 24 h of incubation",90.00%
same,Average RZL-012 and collagenase induced cell death (% vs untreated cells),"RZL12 100 μM, Collagenase 0, 2 h of incubation",99.7%
same,Average RZL-012 and collagenase induced cell death (% vs untreated cells),"RZL12 100 μM, Collagenase 0, 24 h of incubation",99.89%
same,Average RZL-012 and collagenase induced cell death (% vs untreated cells),"RZL12 100 μM, Collagenase 0.1 μM, 2 h of incubation",99.5%
same,Average RZL-012 and collagenase induced cell death (% vs untreated cells),"RZL12 100 μM, Collagenase 0.1 μM, 24 h of incubation",99.66%
same,Average RZL-012 and collagenase induced cell death (% vs untreated cells),"RZL12 100 μM, Collagenase 0.3 μM, 2 h of incubation",99.3%
same,Average RZL-012 and collagenase induced cell death (% vs untreated cells),"RZL12 100 μM, Collagenase 0.3 μM, 24 h of incubation",99.60%
same,Average RZL-012 and collagenase induced cell death (% vs untreated cells),"RZL12 100 μM, Collagenase 1 μM, 2 h of incubation",98.9%
same,Average RZL-012 and collagenase induced cell death (% vs untreated cells),"RZL12 100 μM, Collagenase 1 μM, 24 h of incubation",99.65%
same,Average RZL-012 and collagenase induced cell death (% vs untreated cells),"RZL12 100 μM, Collagenase 3 μM, 2 h of incubation",97.4%
same,Average RZL-012 and collagenase induced cell death (% vs untreated cells),"RZL12 100 μM, Collagenase 3 μM, 24 h of incubation",99.89%
same,Average RZL-012 and collagenase induced cell death (% vs untreated cells),"RZL12 100 μM, Collagenase 10 μM, 2 h of incubation",72.4%
same,Average RZL-012 and collagenase induced cell death (% vs untreated cells),"RZL12 100 μM, Collagenase 10 μM, 24 h of incubation",99.92%
same,Average RZL-012 and collagenase induced cell death (% vs untreated cells),"RZL12 100 μM, Collagenase 30 μM, 2 h of incubation",76.4%
same,Average RZL-012 and collagenase induced cell death (% vs untreated cells),"RZL12 100 μM, Collagenase 30 μM, 24 h of incubation",99.99%
same,Average RZL-012 and collagenase induced cell death (% vs untreated cells),"RZL12 300 μM, Collagenase 0, 2 h of incubation",99.9%
same,Average RZL-012 and collagenase induced cell death (% vs untreated cells),"RZL12 300 μM, Collagenase 0, 24 h of incubation",100.00%
same,Average RZL-012 and collagenase induced cell death (% vs untreated cells),"RZL12 300 μM, Collagenase 0.1 μM, 2 h of incubation",99.6%
same,Average RZL-012 and collagenase induced cell death (% vs untreated cells),"RZL12 300 μM, Collagenase 0.1 μM, 24 h of incubation",99.67%
same,Average RZL-012 and collagenase induced cell death (% vs untreated cells),"RZL12 300 μM, Collagenase 0.3 μM, 2 h of incubation",99.6%
same,Average RZL-012 and collagenase induced cell death (% vs untreated cells),"RZL12 300 μM, Collagenase 0.3 μM, 24 h of incubation",99.74%
same,Average RZL-012 and collagenase induced cell death (% vs untreated cells),"RZL12 300 μM, Collagenase 1 μM, 2 h of incubation",99.1%
same,Average RZL-012 and collagenase induced cell death (% vs untreated cells),"RZL12 300 μM, Collagenase 1 μM, 24 h of incubation",99.96%
same,Average RZL-012 and collagenase induced cell death (% vs untreated cells),"RZL12 300 μM, Collagenase 3 μM, 2 h of incubation",96.6%
same,Average RZL-012 and collagenase induced cell death (% vs untreated cells),"RZL12 300 μM, Collagenase 3 μM, 24 h of incubation",99.76%
same,Average RZL-012 and collagenase induced cell death (% vs untreated cells),"RZL12 300 μM, Collagenase 10 μM, 2 h of incubation",89.2%
same,Average RZL-012 and collagenase induced cell death (% vs untreated cells),"RZL12 300 μM, Collagenase 10 μM, 24 h of incubation",99.82%
same,Average RZL-012 and collagenase induced cell death (% vs untreated cells),"RZL12 300 μM, Collagenase 30 μM, 2 h of incubation",89.5%
same,Average RZL-012 and collagenase induced cell death (% vs untreated cells),"RZL12 300 μM, Collagenase 30 μM, 24 h of incubation",100.01%
same,concentrations at which the cytotoxic effect was observed,"at all time points (2, 6, 24 h)",> 30 µM
